Patent publication US6548531B2, “Method for cancer therapy” (priority 2001, dated 2003)

Legend:
[1] = tested on: MDA-MB-435 breast adenocarcinoma xenograft; assay: In vivo antitumor activity, established mammary fat pad xenograft; conditions: low doses as single agents, 3 weeks i.p.
[2] = Toxicity (body weight, deaths) in tumor-bearing mice; conditions: 3 weeks
Description: Drug Preparation and Treatment: Suspensions of Compound II were prepared by combining the drug and Pluronic F68 block copolymer at 1:9 or 1:18 ratios of drug to polymer, to prepare suspensions in the concentration range 0-10 mg/ml and 20 mg/ml respectively. […] The final ratio of liquid components (EtOH, Cremophor, and saline) were 5:5:90, respectively. The experiment consisted of 16 groups which contained a vehicle group, 3 groups given Paclitaxel at 7.5, 15 and 30 mg/kg as a single agent, 3 groups given Compound II at 12.5, 25 and 50 mg/kg as a single agent and […] combination groups of all doses of Paclitaxel and Compound II.
All mice were observed and weighed as groups, 7 times per week for three weeks. The average weight of individual mice was calculated by dividing the group weight by the number of animals per group. Percent body weight change was calculated using the formula:
(Current Average Weight−Initial Average Weight/Initial Average Weight) ×100.

SMILES | antitumor efficacy [1] | Deaths/Total ([2]; Paclitaxel 7.5 mg/kg i.p. q.d. 5x/week) | Deaths/Total ([2]; Paclitaxel 15 mg/kg i.p. q.d. 5x/week) | Deaths/Total ([2]; Paclitaxel 30 mg/kg i.p. q.d. 3x/week)
Cn1cc(C2=C(c3cn(C)c4cc([N+](=O)[O-])ccc34)C(=O)NC2=O)c2ccccc21 [Compound II] | only minimally effective | – | – | –
CC(=O)O[C@H]1C(=O)[C@@]2(C)[C@H]([C@H](OC(=O)c3ccccc3)[C@]3(O)C[C@H](OC(=O)[C@H](O)[C@@H](NC(=O)c4ccccc4)c4ccccc4)C(C)=C1C3(C)C)[C@]1(OC(C)=O)CO[C@@H]1C[C@@H]2O [Paclitaxel, paclitaxel] | only minimally effective | 2/10 | 0/10 | 0/10
